Patent US4994488A, “Novel imidate insecticides” (ICI Americas Inc., priority 1989, dated 1991)

Tests used:
Assay type in all cases: in vivo
[1] = tested on: Maize weevil (Sitophilus zeamais [Motschulsky]); assay: Maize weevil test on treated corn seeds; settings: 0.01% test solution, 48 hours, about 25° C.
Experimental: Maize weevil (Sitophilus zeamais [Motschulsky])
Test compounds were diluted in a 50:50 acetone:water solution to a concentration of 0.01%. Four corn seeds [Zea mays, (L.)]which had been immersed in test solutions for 2-3 seconds and allowed to dry were placed in covered containers at a temperature of about 25° C. Mortality was recorded after 48 hours.

[2] = tested on: Western Spotted Cucumber Beetle Larvae [Diabrotica undecimpunctata undecimpunctata (Mannherheim)]; assay: Western spotted cucumber beetle larvae soil test (Diabrotica); settings: ppm of test compound in the soil
Experimental: (§1) The compounds in Table 1 above were tested for insecticidal activity using the following testing procedures. LC50 values, based on the results of these tests and calculated according to dosage-mortality curves, are expressed in Table 2.
Western Spotted Cucumber Beetle Larvae[Diabrotica undecimpunctata undecimpunctata (Mannherheim)]
Ten grams of moist potting soil was placed in a plastic cup. The test compound was dissolved in acetone. A 0.05 ml aliquot of the test sample, diluted to the desired concentration, was added to the soil. The cup was capped and the soil was mixed on a vortex mixer for approximately 15 seconds. An indentation was made on the surface of the soil and approximately 50 Diabrotica eggs were added. The eggs were covered with soil and maintained at room temperature (approximately 70° F. or 21° C.). Four days later a section of Romaine lettuce (Latuca sativa) leaf was placed in the treated cups. One week later the cups were examined for live larvae. TEst concentrations ranged from 25 ppm downward. The LC-50 value is expressed below in Table 2 under the heading "Diabrotica" in terms of ppm of the test compound in the soil.

[3] = tested on: two-spotted mite [Tetranychus urticae (Koch)], adults; assay: Two-spotted mite acaricidal test, adults (2SM-A); settings: percent of test compound in solution, 5-7 days
Experimental: as §1
(§2) Acaricidal Evaluation Test
(§3) The two-spotted mite (2SM) [Tetranychus urticae (Koch)]was employed in tests for miticides. The test procedure was as follows:
(§4) Pinto bean plants (Phaseolus sp.), approximately 10 cm tall, were transplanted into sandy loam soil in small cups and thoroughly infested with two-spotted mites of mixed ages and sexes. Twenty-four hours later the infested plants were inverted and dipped for 2-3 seconds in 50--50 acetone-water solutions of the test compound. Treated plants were held in the greenhouse, and 5-7 days later mortality was determined for both adult mites and the nymphs hatching from eggs which were on the plants at the time of treatment. Test concentrations ranged from 0.05% downward. The LC-50 value is expressed below in Table 2 under the headings "2SM-A" (i.e., adults) and "2SM-E" (i.e. eggs) in terms of percent concentration of the test compound in the solution.

[4] = tested on: two-spotted mite [Tetranychus urticae (Koch)], eggs; assay: Two-spotted mite acaricidal test, eggs (2SM-E); settings: percent of test compound in solution; nymphs hatching from eggs; 5-7 days
Experimental: as §1, §2, §3, §4

[5] = tested on: Tobacco Budworm [Heliothis virescens (Fabricius)], eggs; assay: Tobacco budworm egg test (TBW-E); settings: percent of test compound in solution; 2-day old eggs
Experimental: (§5) The compounds in Table 1 above were tested for insecticidal activity using the following testing procedures.
(§6) Tobacco Budworm [Heliothis virescens (Fabricius)]
(b). Eggs: Paper towel patches of 2-day old eggs of the tobacco budworm were dipped in acetone solutions of the test compound and placed in petri dishes containing a portion of larval rearing medium. […] Test concentrations ranged from 0.1% downward. The LC-50 value is expressed below in Table 2 under the heading "TBW-E" in terms of percent of the test compound in the solution.

[6] = tested on: Tobacco Budworm [Heliothis virescens (Fabricius)], larvae; assay: Tobacco budworm contact test, larvae (TBW-C); settings: percent of test compound in solution; second-instar larvae; 5 days
Experimental: as §1, §6
(a) Contact: Test compounds were diluted in a 50--50 acetonewater solution. Cotton (Gossypium sp.) cotyledons were immersed in the test solutions for 2-3 seconds and placed on a wire screen to dry. The dried leaves were placed in petri dishes containing a moistened piece of filter paper and infested with 5 second-instar tobacco budworm larvae. The dishes were placed in a high humidity chamber for 5 days, and percent mortality of the larvae recorded. Test concentrations ranged from 0.1% downward. The LC-50 values are expressed below in Table 2 under the heading "TBW-C" in terms of percent of the test compound in the solution.

[7] = tested on: Black Bean Aphid [Aphis fabae (Scop.)]; assay: Black bean aphid insecticidal test (BBA), foliar spray; settings: percent of test compound in sprayed solution; 48 hours
Experimental: as §5

[8] = tested on: Beet Armyworm (Spodoptera exigua); assay: Beet armyworm test (BAW); settings: percent of test compound in solution; second-instar larvae; five days
Experimental: as §1
Beet Armyworm (Spodoptera exigua)
Test compounds were diluted in a 50--50 acetone-water solution. Young leaves of sugar beets (Beta vulgaris) were immersed in the test solutions for 2-3 seconds and placed on a wire screen to dry. The dried leaves were placed in petri dishes containing a moistened filter paper and infested with five second-instar beet armyworm larvae. The dishes were placed in a high humidity chamber. Mortality of the larvae was recorded five days later. Test concentrations ranged from 0.1% downward. The LC-50 values are expressed below in Table 2 under the heading "BAW" in terms of percent of the test compound in solution.

[9] = tested on: Cabbage Looper [Trichoplusia ni (Hubner)]; assay: Cabbage looper test (CL); settings: percent of test compound in solution; second-instar larvae; 3-5 days
Experimental: as §5
Cabbage Looper [Trichoplusia ni (Hubner)]
The test compound was diluted in a 50--50 acetone-water solution. Cotyledons of hyzini squash (Calabacita abobrinha), approximately 1×1.5 inches, were immersed in the test solutions for 2-3 seconds and placed on a wire screen to dry. The dried leaves were placed in petri dished containing a moistened piece of filter paper and infested with 5 secondinstar cabbage looper larvae. The dished were placed in a high humidity chamber. Mortality of the larvae was recorded 3-5 days later. Test concentrations ranged from 0.1% downward. The LC-50 value is expressed below in Table 2 under the heading "CL" in terms of percent of the test compound in solution.

[10] = tested on: Housefly [Musca domestica]; assay: Housefly insecticidal test (HF); settings: per 25 female houseflies; mortality at 48 hours
Experimental: as §1
Housefly [Musca domestica]
The test compound was diluted in acetone and aliquots pipetted onto the bottom of aluminum dishes. To ensure even spreading of the chemical on the bottom of the dishes, 1 ml of acetone containing 0.01% peanut oil was also added to each dish. After all solvents had evaporated, the dishes were placed in circular cardboard cages containing 25 female houseflies, 1-2 days old. The cages were covered on the bottom with cellophane and on the top with tulle netting, and each contained a sugar-water saturated cotton plug for maintenance of the flies. Mortality was recorded after 48 hours. Test levels ranged from 100 μg/25 female houseflies downward. The LC-50 value is expressed below in Table 2 under the heading "HF", in terms of μg of the test compound per 25 female flies.

[11] = tested on: Aster Leafhopper [Macrosteles fascifrens (Stal)]; assay: Contact residue assay on the aster leafhopper (LH); settings: percent of test compound in solution; adults/nymphs; 48 hours
Experimental: as §1
Contact Residue Assay on the Aster Leafhopper [Macrosteles fascifrens (Stal)]
Oat seedlings (Avena sp) were grown in a commercial potting soil in cups. When the plants were approximately 10 cm tall they were thinned to three plants per cup and dipped for 2-3 seconds in 50--50 acetone-water solutions of the test compounds. When the plants had dried, a clear plastic tube was placed over them and the bottom end pressed into the cup. Ten aster leafhopper adults/nymphs were then placed in each tube and the tops of the tubes covered with white organdy cloth. Mortality counts were made after 48 hours. Test concentrations ranged from 0.05% down to that at which 50% mortality occurred. The LC50 values are expressed below in Table 2 under the heading "LH" in terms of the percent of the test compound in the solution.

## Fc1ccc(COC(=Nc2ccc(C(F)(F)F)cc2)C2CC2)cc1Oc1ccccc1 [Compound 15]
[1]
  mortality at 0.01 %: 50%
[2]
  LC50 Diabrotica: > 25 ppm (soil)
[3]
  LC50 2-SM A (adults): < 0.05%
[4]
  LC50 2-SM E (eggs): < 0.05%
[5]
  LC50 TBW E (eggs): 0.017%

## Fc1ccc(COC(=Nc2ccc(C(F)(F)F)cc2)C2CC2)cc1Oc1ccc(Cl)cc1 [Compound 16]
[2]
  LC50 Diabrotica: > 25 ppm (soil)
[3]
  LC50 2-SM A (adults): > 0.05%
[4]
  LC50 2-SM E (eggs): > 0.05%
[5]
  LC50 TBW E (eggs): 0.023%

## Clc1ccc(N=C(OCc2cccc(Oc3ccccc3)c2)C2CC2)cc1 [Compound 4, N-(4-Chlorophenyl)-O-(3-phenoxybenzyl)cyclopropylcarboximidate]
[2]
  LC50 Diabrotica: > 25 ppm (soil)
[3]
  LC50 2-SM A (adults): 0.01%
[4]
  LC50 2-SM E (eggs): 0.05%
[6]
  LC50 TBW C (contact): 0.006%
[5]
  LC50 TBW E (eggs): 0.1%

## CC1CC1C(=Nc1ccc(Cl)cc1)OCc1cccc(Oc2ccccc2)c1 (stereo not shown) [Compound 2]
[2]
  LC50 Diabrotica: > 25 ppm (soil)
[3]
  LC50 2-SM A (adults): > 0.05%
[4]
  LC50 2-SM E (eggs): > 0.05%
[5]
  LC50 TBW E (eggs): > 0.01%

## CC1(C)C(C(=Nc2ccc(F)c(Cl)c2)OCc2cccc(Oc3ccccc3)c2)C1(C)C [Compound 12]
[2]
  LC50 Diabrotica: > 25 ppm (soil)
[3]
  LC50 2-SM A (adults): 0.05%
[4]
  LC50 2-SM E (eggs): 0.05%
[5]
  LC50 TBW E (eggs): > 0.01%

## FC(F)(F)c1cccc(N=C(OCc2cccc(Oc3ccccc3)c2)C2CC2)c1 [Compound 9]
[2]
  LC50 Diabrotica: > 25 ppm (soil)
[3]
  LC50 2-SM A (adults): > 0.05%
[4]
  LC50 2-SM E (eggs): > 0.05%
[5]
  LC50 TBW E (eggs): > 0.1%
[7]
  LC50 BBA: > 0.05%

## Fc1ccc(N=C(OCc2cccc(Oc3ccccc3)c2)C2CC2)cc1Cl [Compound 10]
[2]
  LC50 Diabrotica: > 25 ppm (soil)
[3]
  LC50 2-SM A (adults): > 0.05%
[4]
  LC50 2-SM E (eggs): > 0.05%
[5]
  LC50 TBW E (eggs): 0.1%

## CC1(C(=Nc2ccc(Cl)cc2)OCc2cccc(Oc3ccccc3)c2)CC1 [Compound 1]
[2]
  LC50 Diabrotica: > 25 ppm (soil)
[3]
  LC50 2-SM A (adults): > 0.05%
[4]
  LC50 2-SM E (eggs): > 0.05%
[6]
  LC50 TBW C (contact): 0.008%
[8]
  LC50 BAW: 0.025%
[5]
  LC50 TBW E (eggs): 0.05%

## Fc1ccc(Oc2cccc(COC(=Nc3ccc(F)c(Cl)c3)C3CC3)c2)cc1 [Compound 11]
[2]
  LC50 Diabrotica: > 25 ppm (soil)
[3]
  LC50 2-SM A (adults): > 0.05%
[4]
  LC50 2-SM E (eggs): > 0.05%
[8]
  LC50 BAW: > 0.1%
[5]
  LC50 TBW E (eggs): 0.05%

## Clc1cccc(N=C(OCc2cccc(Oc3ccccc3)c2)C2CC2)c1 [Compound 3]
[2]
  LC50 Diabrotica: > 25 ppm (soil)
[3]
  LC50 2-SM A (adults): > 0.05%
[4]
  LC50 2-SM E (eggs): > 0.05%
[5]
  LC50 TBW E (eggs): 0.1%

## CC(C)(C)c1ccc(N=C(OCc2cccc(Oc3ccc(F)cc3)c2)C2CC2)cc1 [Compound 14]
[2]
  LC50 Diabrotica: > 25 ppm (soil)
[9]
  LC50 CL: 0.017%
[3]
  LC50 2-SM A (adults): 0.02%
[4]
  LC50 2-SM E (eggs): 0.02%
[10]
  LC50 HF: > 100 µg
[11]
  LC50 LH: > 0.05%
[5]
  LC50 TBW E (eggs): > 0.1%

## c1ccc(Oc2cccc(COC(=Nc3ccc4c(c3)OCO4)C3CC3)c2)cc1 [Compound 13]
[1]
  mortality at 0.01 %: 50%
[2]
  LC50 Diabrotica: > 25 ppm (soil)
[9]
  LC50 CL: 0.002%
[3]
  LC50 2-SM A (adults): > 0.05%
[4]
  LC50 2-SM E (eggs): > 0.05%
[5]
  LC50 TBW E (eggs): > 0.01%

## FC(F)(F)Oc1ccc(N=C(OCc2cccc(Oc3ccccc3)c2)C2CC2)cc1 [Compound 7]
[2]
  LC50 Diabrotica: 17 ppm (soil)
[3]
  LC50 2-SM A (adults): 0.01%
[4]
  LC50 2-SM E (eggs): 0.01%
[6]
  LC50 TBW C (contact): 0.001%
[5]
  LC50 TBW E (eggs): 0.05%

## FC(F)(F)c1ccc(N=C(OCc2cccc(Oc3ccccc3)c2)C2CC2)c(Cl)c1 [Compound 8]
[2]
  LC50 Diabrotica: 25 ppm (soil)
[3]
  LC50 2-SM A (adults): > 0.05%
[4]
  LC50 2-SM E (eggs): > 0.05%
[6]
  LC50 TBW C (contact): 0.1%
[5]
  LC50 TBW E (eggs): > 0.1%

## FC(F)(F)c1ccc(N=C(OCc2cccc(Oc3ccccc3)c2)C2CC2)cc1 [Compound 6]
[2]
  LC50 Diabrotica: 25 ppm (soil)
[3]
  LC50 2-SM A (adults): 0.01%
[4]
  LC50 2-SM E (eggs): > 0.05%
[6]
  LC50 TBW C (contact): 0.0015%
[5]
  LC50 TBW E (eggs): 0.025%

## Fc1ccc(N=C(OCc2cccc(Oc3ccccc3)c2)C2CC2)cc1 [Compound 5]
[2]
  LC50 Diabrotica: > 25 ppm (soil)
[3]
  LC50 2-SM A (adults): 0.05%
[4]
  LC50 2-SM E (eggs): 0.05%
[6]
  LC50 TBW C (contact): 0.01%
[5]
  LC50 TBW E (eggs): 0.08%
